What was measured:
[1] = same polydimethylsiloxane devices; stated as known; cited from earlier work
[2] = Selective transfer of molecules through ultrahigh Dk lens material; type: physicochemical; conditions: ultrahigh Dk lens material selective to molecules by size
Source text: The inventors discovered an ultrahigh Dk lens material that is selective to the transfer of molecules based on their size. […] The material has value in reverse osmosis systems because of its selective permeability. Its transmissibility may be regulated by the thickness profile of the ophthalmic device or may be further regulated by the addition of surface modification or fillers within the substrate of the material that produce selective permeability related to polar surface area or the molecular weight of a permeant.

[3] = Retention of permeants under polydimethylsiloxane devices during wearing; conditions: devices 14.3 mm overall diameter, thickness greater than 0.400 mm; not found in device substrate after removal or in pre device tear film during wearing

SMILES | transmissibility through the devices [1] | transfer through the material [2] | retention of permeant behind the device (permeation through device) [3]
CCO [ethanol] | high transmissibility |  | 
O=O [oxygen] | high transmissibility | will transfer | 
[Cl-].[Na+] [sodium chloride] |  | will not transfer | 
O=C([O-])c1ccccc1-c1c2ccc(=O)cc-2oc2cc([O-])ccc12.[Na+].[Na+] [sodium fluorescein] |  |  | retained in the post lens tear space
O [water vapor] | high transmissibility | will transfer | 
